We go through 1 compound from patent US11273165B2, “Applications for estradiol in preparing anti-small cell lung cancer and/or ovarian cancer and/or osteosarcoma products” (SHANGHAI JIAO TONG UNIVERSITY, priority 2015, dated 2022).

Some results are limits rather than exact numbers.

What all share (assay type): cell-based
For assay [1], the system named is SKOV-3 ovarian cancer cells. In words: CellTiter-Glo luminescent cell viability assay, SKOV-3 ovarian cancer cells. As to conditions: Homo sapiens, 72 hours. As for the experimental part: (§1) In example 1, CELLTITER-GLO was used to test estradiol against small-cell lung cancer and/or ovarian cancer and/or osteosarcoma epithelial cell carcinoma 1. Cell plating • a) The complete medium required for each cell was prepared. • b) Before beginning the experiment, the name of the drug screened for the cells marked on the 100 mm petri dish was confirmed as well as information such as the passage time and number of passages to ensure the experiment was error-free. • c) Refer to steps d) through i) for procedures for adherent cells; refer to steps j) through l) for procedures for suspension cells. • d) When using aseptic technique, a vacuum pump was used to draw the cell culture medium. • e) 2 ml of a sterile PBS solution was used to rinse the cell surface, and a vacuum pump was used to aspirate the PBS waste. • f) A 1 ml 0.25% (w/v) Trypsin-0.038% (w/v) EDTA solution was gently added to the petri dish for cell digestion, and after gently mixing several times, the solution covered the cell surfaces. […]
(ATP-based viability assays read luminescence as a measure of living cells.)

Assay [2] relates to NCI-H810 human hepatoma cells. In words: CellTiter-Glo luminescent cell viability assay, NCI-H810 human hepatoma cells. The settings on record: 72 hours. As for the experimental part: as §1
In assay [3] the test system is SNU-475 human hepatoma cells. In words: CellTiter-Glo luminescent cell viability assay, SNU-475 human hepatoma cells. As to conditions: 72 hours.
Assay [4] has as its system NCI-H82 small-cell lung cancer cells. In words: CellTiter-Glo luminescent cell viability assay, NCI-H82 small-cell lung cancer cells. As to conditions: Homo sapiens, 72 hours. As for the experimental part:
as §1

Assay [5] concerns U2OS osteosarcoma cells. In words: CellTiter-Glo luminescent cell viability assay, U2OS osteosarcoma cells. As to conditions: Homo sapiens, 72 hours. On the procedure:
as §1

By IC50 is commonly meant the concentration that gives 50% inhibition. A low value points to inhibition by little substance. The EC50 is the midpoint of the concentration-response curve. For `C[C@]12CC[C@@H]3c4ccc(O)cc4CC[C@H]3[C@@H]1CC[C@@H]2O` [estradiol], the IC50 in assay [1] (SK-OV-3, SKOV-3 ovarian cancer cells) was 3.07 µM; in assay [2], at least 100 µM; in assay [3], at least 100 µM; in assay [4] it was 16.3 µM; in assay [5], 32.7 µM. For the same compound, the EC50 in assay [1] (SK-OV-3, ovarian cancer cells, read-out: EC50 (estradiol sensitivity to ovarian cancer, FIG. 2)) is 3.03 µM; in assay [4] (read-out: EC50 (estradiol sensitivity to small-cell lung cancer, FIG. 3)) it was 15.3 µM; in assay [5] (read-out: EC50 (estradiol sensitivity to osteosarcoma, FIG. 4)), 28.8 µM.
